50 compounds from patent publication US5232923A, “Catechol derivatives and pharmaceutical preparations containing same” (Mitsui Toatsu Chemicals, Incorporated, priority 1988, dated 1993) can be followed below.

This assay has as its system production and secretion of NGF in mouse L-M cells. As to the kind of experiment: Promoting activity for the production and secretion of NGF in mouse L-M cells (ELISA of medium after 24 h). Particulars: for fold induction at 200 µM: Mus musculus, 24 h, read-out: NGF Increase Ratio; for NGF Concentration: 24 hours, mean of four determinations. The class given is cell-based. Here is the method:
Promoting activity for the production and secretion of NGF in mouse L-M cells
The medium was cultured for 3 days at a temperature of 37° C. […] The sample of the derivative tested is contained in the medium at a prescribed concentration as illustrated in the Tables. […] Data are expressed as fold increase in NGF content of the medium over that cultivated in the absence of the derivative to be tested. […] Data are presented as the mean of four determinations. The results are illustrated in Tables 1-5.
For orientation: In an ELISA, binding on a coated surface is turned into a signal by an enzyme label.

[1] abbreviates: Table 1, L-M cells, sample concentration 0.2 mM, control 0.33.
Setting [2] is: Table 1, L-M cells, sample concentration 0.2 mM, fold increase over control (1.00).
The mark [3] stands for this setting: Table 2, L-M cells, sample concentration 0.2 mM, fold increase over control (1.00).
Setting [4] is: Table 2, L-M cells, sample concentration 0.2 mM, control 0.34.

Read-outs that look alike come from different tables or passages of the source.

Regarding `NCCc1ccc(O)c(O)c1` [Comparative compound, reference compound], the fold induction at 200 µM came to 3.94. Further, the “NGF Concentration” value under setting [1] was found to be 1.30 ng/well.
As to `CCC(=O)NCCc1ccc(O)c(O)c1` [Compound 2], the fold induction at 200 µM under setting [2] was 9.39. Also, the “NGF Concentration” value under setting [1] came to 3.10 ng/well.
Take `CC(=O)NCc1ccc(O)c(O)c1` [Compound 4]: the fold induction at 200 µM under setting [2] stood at 7.88. Under setting [1], the “NGF Concentration” value is 2.60 ng/well.
For `CCC(=O)NCc1ccc(O)c(O)c1` [Compound 5], in that order: 8.33 and 2.75 ng/well.
For `CCCC(=O)NCc1ccc(O)c(O)c1` [Compound 6], in that order: 8.94 and 2.95 ng/well.
Taken in the same sequence, the figures for `CCC(=O)NCCCc1ccc(O)c(O)c1` [Compound 8] were 8.79 and 2.90 ng/well.
As to `CCCC(=O)NCCCc1ccc(O)c(O)c1` [Compound 9], the fold induction at 200 µM under setting [2] was found to be 8.33. For the same compound, the “NGF Concentration” value under setting [1] turned out to be 2.75 ng/well.
Take `CCC(=O)N(C)CCc1ccc(O)c(O)c1` [Compound 11]: the fold induction at 200 µM under setting [2] stood at 10.1. Also, the “NGF Concentration” value under setting [1] is recorded as 3.32 ng/well.
As for `CCC(=O)NCCc1ccc(OC(C)=O)c(OC(C)=O)c1` [Compound 14], the fold induction at 200 µM under setting [2] amounted to 10.6. Moreover, the “NGF Concentration” value under setting [1] was found to be 3.49 ng/well.
Turning to `CC(=O)NCc1ccc(OC(C)=O)c(OC(C)=O)c1` [Compound 16], the fold induction at 200 µM under setting [2] is 8.24. Besides, the “NGF Concentration” value under setting [1] stood at 2.72 ng/well.
Regarding `CC(=O)Oc1ccc(CCN(C)C(C)=O)cc1OC(C)=O` [Compound 18], the fold induction at 200 µM under setting [2] was 12. Further, the “NGF Concentration” value under setting [1] is given as 3.95 ng/well.
As to `CCCNCCc1ccc(O)c(O)c1` [Compound 20], the fold induction at 200 µM was found to be 11. Further, under setting [1], the “NGF Concentration” value was determined as 3.62 ng/well.
As to `CNCc1ccc(O)c(O)c1` [Compound 22], the fold induction at 200 µM under setting [2] was found to be 9. Also, the “NGF Concentration” value under setting [1] turned out to be 2.97 ng/well.
Turning to `CCNCc1ccc(O)c(O)c1` [Compound 23], the fold induction at 200 µM under setting [2] was 9.33. Moreover, the “NGF Concentration” value under setting [1] is given as 3.08 ng/well.
With `CCCNCc1ccc(O)c(O)c1` [Compound 24], the fold induction at 200 µM under setting [2] turned out to be 8.91. The “NGF Concentration” value under setting [1] turned out to be 2.94 ng/well.
Take `CCCCNCc1ccc(O)c(O)c1` [Compound 25]: the fold induction at 200 µM under setting [2] worked out at 8.82. For the same compound, the “NGF Concentration” value under setting [1] was 2.91 ng/well.
On to `CCNCCCc1ccc(O)c(O)c1` [Compound 27], for which, under setting [2], the fold induction at 200 µM was determined as 8.76. The “NGF Concentration” value under setting [1] was determined as 2.89 ng/well.
On to `CCCNCCCc1ccc(O)c(O)c1` [Compound 28], for which the fold induction at 200 µM under setting [2] amounted to 8.45. The “NGF Concentration” value under setting [1] stood at 2.79 ng/well.
On to `CC(=O)Oc1ccc(CCN(C)C)cc1OC(C)=O` [Compound 30], for which the fold induction at 200 µM is 11.5. For the same compound, the “NGF Concentration” value under setting [1] is 3.80 ng/well.
For `CCN(C)CCc1ccc(OC(C)=O)c(OC(C)=O)c1` [Compound 31], in that order: 11.4 and 3.76 ng/well.
On to `COC(=O)CCc1ccc(O)c(O)c1` [Compound 34], for which, under setting [3], the fold induction at 200 µM stood at 5.79. Under setting [4], the “NGF Concentration” value was 1.97 ng/well.
Taken in the same sequence, the figures for `CCCOC(=O)CCc1ccc(O)c(O)c1` [Compound 36] were 5.53 and 1.88 ng/well.
In the case of `COC(=O)Cc1ccc(O)c(O)c1` [Compound 38], under setting [3], the fold induction at 200 µM was 4.79. Further, the “NGF Concentration” value under setting [4] came to 1.63 ng/well.
For the compound `CCCOC(=O)Cc1ccc(O)c(O)c1` [Compound 40], the fold induction at 200 µM under setting [3] came to 5.41. Also, under setting [4], the “NGF Concentration” value is given as 1.84 ng/well.
For `CCCCOC(=O)Cc1ccc(O)c(O)c1` [Compound 41], in that order: 5.26 and 1.79 ng/well.
For `COC(=O)CCCc1ccc(O)c(O)c1` [Compound 42], in that order: 5.32 and 1.81 ng/well.
Taken in the same sequence, the figures for `CCCOC(=O)CCCc1ccc(O)c(O)c1` [Compound 44] were 5.62 and 1.91 ng/well.
Take `CCCCOC(=O)CCCc1ccc(O)c(O)c1` [Compound 45]: the fold induction at 200 µM under setting [3] came out at 5.41. Further, the “NGF Concentration” value under setting [4] amounted to 1.84 ng/well.
For `COC(=O)CCc1ccc(OC(C)=O)c(OC(C)=O)c1` [Compound 46], in that order: 5.91 and 2.01 ng/well.
Taken in the same sequence, the figures for `CCCOC(=O)CCc1ccc(OC(C)=O)c(OC(C)=O)c1` [Compound 48] were 6.26 and 2.13 ng/well.
Taken in the same sequence, the figures for `COC(=O)Cc1ccc(OC(C)=O)c(OC(C)=O)c1` [Compound 50] were 5.09 and 1.73 ng/well.
On to `CCCOC(=O)Cc1ccc(OC(C)=O)c(OC(C)=O)c1` [Compound 52], for which the fold induction at 200 µM under setting [3] worked out at 5.53. Under setting [4], the “NGF Concentration” value turned out to be 1.88 ng/well.
With `CCCCOC(=O)Cc1ccc(OC(C)=O)c(OC(C)=O)c1` [Compound 53], the fold induction at 200 µM under setting [3] turned out to be 4.79. In addition, the “NGF Concentration” value under setting [4] is 1.63 ng/well.
For `COC(=O)CCCc1ccc(OC(C)=O)c(OC(C)=O)c1` [Compound 54], in that order: 5.53 and 1.88 ng/well.
For `CCCOC(=O)CCCc1ccc(OC(C)=O)c(OC(C)=O)c1` [Compound 56], in that order: 5.09 and 1.73 ng/well.
For `CCCCOC(=O)CCCc1ccc(OC(C)=O)c(OC(C)=O)c1` [Compound 57], in that order: 5.32 and 1.81 ng/well.
For `CNC(=O)CCc1ccc(O)c(O)c1` [Compound 59, N-Methyl-3,4-dihydroxyphenylpropionamide], under setting [3], the fold induction at 200 µM was determined as 5.62. Further, the “NGF Concentration” value under setting [4] worked out at 1.91 ng/well.
Taken in the same sequence, the figures for `CCCNC(=O)CCc1ccc(O)c(O)c1` [Compound 61] were 5.91 and 2.01 ng/well.
For `NC(=O)Cc1ccc(O)c(O)c1` [Compound 62], in that order: 4.79 and 1.63 ng/well.
For `CNC(=O)Cc1ccc(O)c(O)c1` [Compound 63], in that order: 5.82 and 1.98 ng/well.
As to `CCCNC(=O)Cc1ccc(O)c(O)c1` [Compound 65], under setting [3], the fold induction at 200 µM was 5.21. Under setting [4], the “NGF Concentration” value is on record as 1.77 ng/well.
Taken in the same sequence, the figures for `CCCCNC(=O)Cc1ccc(O)c(O)c1` [Compound 66] were 5.85 and 1.99 ng/well.
For `NC(=O)CCCc1ccc(O)c(O)c1` [Compound 67], in that order: 4.97 and 1.69 ng/well.
Regarding `CNC(=O)CCCc1ccc(O)c(O)c1` [Compound 68], under setting [3], the fold induction at 200 µM was 5.09. Moreover, the “NGF Concentration” value under setting [4] was 1.73 ng/well.
For `CCCNC(=O)CCCc1ccc(O)c(O)c1` [Compound 70], in that order: 5.38 and 1.83 ng/well.
As to `CCCCNC(=O)CCCc1ccc(O)c(O)c1` [Compound 71], under setting [3], the fold induction at 200 µM amounted to 5.71. The “NGF Concentration” value under setting [4] is given as 1.83 ng/well.
For the compound `CC(=O)Oc1ccc(CC(N)=O)cc1OC(C)=O` [Compound 75], under setting [3], the fold induction at 200 µM stood at 5.53. Also, under setting [4], the “NGF Concentration” value turned out to be 2.03 ng/well.
Taken in the same sequence, the figures for `CCCCNC(=O)Cc1ccc(OC(C)=O)c(OC(C)=O)c1` [Compound 77] were 5.26 and 1.86 ng/well.
In the case of `CC(=O)Oc1ccc(CCCC(N)=O)cc1OC(C)=O` [Compound 78], the fold induction at 200 µM under setting [3] was 4.94. The “NGF Concentration” value under setting [4] stood at 1.79 ng/well.
For the compound `CCCCNC(=O)CCCc1ccc(OC(C)=O)c(OC(C)=O)c1` [Compound 80], the fold induction at 200 µM under setting [3] amounted to 5.74. Further, under setting [4], the “NGF Concentration” value came to 1.95 ng/well.
